The values that follow come from patent US5658880A, “Sialic acid/fucose based medicaments” (Glycomed Incorporated, priority 1994, dated 1997).

One experiment relates to P-selectin. The experiment can be described thus: ELISA: inhibition of P-selectin-IgG chimera binding to 2,3 sLe^x glycolipid. Details: species or system human. The note with it: inhibition of binding to 2,3 sLex glycolipid. From the text:
(§1) An ELISA assay is preferably used that employs recombinant fusion proteins composed of extracellular portions of the human selectins joined to human immunoglobulin heavy chain CH3, CH2, and hinge regions. See, for example, Walz et al., Science (1990) 250:1132; Aruffo et al., Cell (1991) 67:35; Aruffo et al., Proc. Natl. Acad. Sci. USA. (1992) 89:2292. The assay is well known in the art, and generally consists of the following three steps:
(§2) I. 2,3 sLe^x glycolipid (25 picomole/well) was transferred into microtiter wells as solutions and then evaporated off. Excess, which remained unattached, was washed off with water. The wells were then blocked with 5% BSA at room temperature for an hour and then washed with PBS containing 1 mM calcium.
(§3) II. Preparation of "multivalent" receptor of the Selectin-lgG chimera was carried out by combining the respective chimera (1 μg/mL) with biotin labelled goat F(ab')2 anti-human IgG (Fc specific) and streptavidin-alkaline phosphatase diluted 1:1000 in 1% BSA-PBS (1 mM calcium) and incubating at 37° C. for 15 min. This allowed the soluble multivalent receptor complex to form. III. Potential inhibitors such as the compounds of formula I or II were allowed to react with the soluble receptor at 37° C. for 45 min. This test assumes that optimal binding, between the soluble phase receptor complex and the inhibitor (non natural ligand), would have occurred within this time frame. This solution was then placed in the microtiter wells that were prepared in step I. The plate was incubated at 37° C. for 45 minutes to allow the soluble receptor to bind to its natural ligand. In the presence of a strong inhibitor only a few receptors should be free to bind to the microtiter plate coated with the natural ligand.
(§4) The positive control is the signal produced by the soluble receptor when it is allowed to react with 2,3 sLe^x glycolipid in the microtiter wells in the absence of any inhibitor. This positive control was considered 100% binding. The signal produced by the receptor that had been previously treated with an inhibitor (recorded as O.D.), was divided by the signal produced by the positive control and multiplied by 100 to calculate the % receptor bound to the well in the presence of the inhibitor. The reciprocal of this number is the % inhibition.
(§5) An ELISA assay was employed that uses recombinant fusion proteins composed of extracellular portions of the human selectins joined to human immunoglobulin heavy chain CH3, CH2, and hinge regions. See, for example, Walz et al., Science (1990) 250:1132; Aruffo et al., Cell (1991) 67:35; Aruffo et al., Proc. Natl. Acad. Sci. USA (1992) 89:2292. The assay is well known in the art, and generally consists of the following three steps:
(§6) II. Preparation of "multivalent" receptor of the Selectin-IgG chimera was carried out by combining the respective chimera 1 μg/ml) with biotin labelled goat F(ab')2 anti-human IgG (Fc specific) and streptavidin-alkaline phosphatase diluted 1:1000 in 1% BSA-PBS (1 mM calcium) and incubating at 37° C. for 15 min. This allowed the soluble multivalent receptor complex to form.
(§7) III. Potential inhibitors such as compounds of formula I or II were allowed to react with the soluble receptor at 37° C. for 45 min. This test assumes that optimal binding, between the soluble phase receptor complex and the inhibitor (non natural ligand), would have occurred within this time frame. This solution was then placed in the microtiter wells that were prepared in step I. The plate was incubated at 37° C. for 45 minutes to allow the soluble receptor to bind to its natural ligand. In the presence of a strong inhibitor only a few receptors should be free to bind to the microtiter plate coated with the natural ligand.
(§8) The positive control is the signal produced by the soluble receptor when it is allowed to react with 2,3 sLe^x glycolipid in the microtiter wells in the absence of any inhibitor. This was considered 100% binding. […]
In general terms: ELISA stands for enzyme-linked immunosorbent assay.

A further experiment relates to human neutrophils. The experiment can be described thus: Reperfusion injury assay: complement-induced human neutrophil adhesion in rabbit isolated heart. Details: species or system human neutrophils; New Zealand White rabbit heart. To be noted: 4% normal human plasma, 0.1 mg/ml (0.001, 0.01 and 0.1 mg/ml tested), read-out: % Neutrophil Inhibition (neutrophil accumulation). From the text:
Experiments were done to determine the effectiveness of compound 7 in decreasing adhesion of human neutrophils in the rabbit isolated heart. Addition of the human plasma to the rabbit isolated heart results in activation of the complement components found within the plasma, which in turn promotes an increase in the neutrophil accumulation. This model is used to determine the effect of sLe^x analogues on inhibiting complement-induced neutrophil adhesion. Hearts from New Zealand White rabbits were excised, mounted on a modified Langendorff apparatus and perfused with Krebs-Heinseleit buffer. Cardiac functional parameters were monitored upon a Grass Model 79D polygraph machine. 4% normal human plasma (NHP) was added to the recirculating buffer. Ten minutes after the addition of the plasma, 13b (0.1 mg/ml) was added to the perfusate. After 15 minutes of perfusion with the plasma, 51-chromium labelled human neutrophils (1×10^5 /ml) were added to the perfusate and allowed to recirculate for an additional 15 minutes. At the end of this time the hearts were washed with fresh buffer to remove non-specifically bound neutrophils, dried and counted in a well type gamma-counter. A concentration response curve was generated using concentrations of 0.001, 0.01 and 0.1 mg/ml. […] Table 3 lists the results, expressed as the percent inhibition of neutrophil accumulation.

The test system of experiment [1] is neutrophil migration into the peritoneum. The experiment can be described thus: Murine thioglycollate induced peritonitis: neutrophil migration to the peritoneal cavity. It is filed as in vivo, mouse (Swiss Webster). The source says: The efficaciousness of 7 and 10 was shown using a murine thioglycollate induced peritonitis model. The assay materials and methods are known in the art, or are generally described by Lewinsohn, D. et al., J. Immun., 138:4313-4321 (1987), or Watson, S. et al., Nature 349:164-166 (1991). This assay measures the ability of the compounds to inhibit neutrophil migration to the peritoneal cavity, the migration being initiated by the presence of thioglycollate in the peritoneal cavity. Thioglycollate is a known and effective inflammatory agent that causes neutrophil migration into the mouse peritoneum when it is administered intraperitoneally. Lewinsohn, D. et al., J. Immun. (1987) 138:4313-4321. Briefly, female Swiss Webster mice weighing about 25 grams were injected in the tail vein with 200 μl of phosphate buffered saline (PBS) with or without the appropriate compound. The pH of the solutions was adjusted to neutrality by the addition of either NaOH or HCL and sterilized by filtration through a 0.2 μ filter. Immediately following injection with the appropriate compound or PBS, the mice were injected intraperitoneally with 1 ml of thioglycollate medium prepared as described by the manufacturer, BBL. Three hours following injection of the thioglycollate solution the mice were sacrificed by CO2 asphyxiation, and the number of cells in the peritoneum removed by lavage with 5 ml of heparinized (5 U/ml) 0.9% sodium chloride solution containing 0.1% bovine serum albumin. Cell number was determined using a Coulter Counter. The cells were prepared for counting by diluting the lavage fluid with 1:50 of a commercial physiological isotonic solution, Isoton II, and the cells lysed by adding S/P Lysing and Hemoglobin Reagent (1:100 final dilution). Cell nuclei were counted in a sized window with lower and upper limits set at 3.9 and 5.7 μm, respectively.

Another experiment concerns E-selectin. The experiment can be described thus: ELISA: inhibition of E-selectin-IgG chimera binding to 2,3 sLe^x glycolipid. Details: species or system human.
Source text: as §1, §2, §3, §4, §5, §6, §7, §8

A value given as a limit tells only on which side of the number the result lay.

One may read the IC50 as the concentration at which inhibition is half-maximal. A higher IC50 goes with a need for much substance. As a reminder, the inhibition is how much of the control response was suppressed.

`CC(=O)NC1C(O)CC(OCCCCCCOC2OC(C)C(O)C(O)C2O)(C(=O)O)OC1C(O)C(O)CO` [Compound 7, 1-O-α-Neu5Ac-(6-O-α-L-Fucopyranosyl)-Hexane]: the IC50 in the experiment with P-selectin and in the experiment on E-selectin (inhibition of binding to 2,3 sLex glycolipid) was over 4 mM each time. Moreover, the inhibition at 100 µg/mL in the experiment on human neutrophils was found to be 30%. In addition, in experiment [1] (7 compared with 10, FIG. 7), the “inhibited more neutrophil migration than 10” value is “about 30%”. For the same compound, in experiment [1] (mice, tail vein injection, 3 h after thioglycollate, FIG. 7(a) and (b)), the “inhibit neutrophil migration into the peritoneum” value is listed as “inhibit neutrophil migration into the peritoneum”. Besides, the “inhibition of E-selectin binding to 2,3 sLe^x glycolipid” value with E-selectin (FIG. 4, result in words) was “inhibit E-selectin binding to 2,3 sLe^x glycolipid”.
